Measurements reported in US7731985B2, “4-aminopyrimidines and their use for the antimicrobial treatment of surfaces” (Ciba Specialty Chemicals Corporation, priority 2002, dated 2010).

Columns and labels:
Assay in all cases: MIC in microtitre plates (Example 10)
Type in all cases: cell-based
Parameters in all cases: unit not given here
Conditions in all cases: microtitre plate, 48 hours at 37° C., ≦20% growth
[1] = tested on: Candida albicans ATCC 10231 (=CA)
Experimental: (§1) Determination of the Minimum Inhibitory Concentration (MIC Value) in Microtitre Plates Casein/soymeal peptone broth for preparation of pre-cultures of test bacteria and yeast Bacteria: • Pseudomonas aeruginosa CIP A-22 (=PA) • Escherichia coli NCTC 8196 (=EC) • Staphylococcus aureus ATCC 9144 (=SA) • Candida albicans ATCC 10231 (=CA) The test substances are pre-dissolved in dimethyl sulfoxide (DMSO) and tested in a dilution series of 1:2. Bacteria and yeast are cultured overnight in CASO broth. All the test organism suspensions are adjusted to an organism count of 1-5×10^6 CFU/ml using […] sodium chloride solution. The test substances are pre-pipetted into microtitre plates in amounts of 8 μl per well. The pre-adjusted organism suspensions are diluted 1:100 in CASO broth and are added in amounts of 192 μl per well to the test substances. The test batches are incubated for 48 hours at 37° C. The incubation, the growth is determined on the basis of the turbidity of the test batches (optical density) at 620 nm in a microplate reader. The minimum inhibitory concentration (MIC value) is the concentration of substance at which (compared to the growth of the control) an appreciable inhibition of growth (≦20% growth) of the test organisms is observed. Three microtitre plates are used for each test organism and substance concentration. All the substances are tested in duplicate.

[2] = tested on: Escherichia coli NCTC 8196 (=EC)
Experimental: as §1

[3] = tested on: Pseudomonas aeruginosa CIP A-22 (=PA)
Experimental: as §1

[4] = tested on: Staphylococcus aureus ATCC 9144 (=SA)
Experimental: as §1

Row | SMILES | MIC CA [1] | MIC EC [2] | MIC PA [3] | MIC SA [4]
1 | NCCN1CCN(c2nc(-c3ccccc3)nc(-c3cccc4ccccc34)c2-c2ccccc2)CC1 [compound 3] | 7.5 | 15 | >120 | 7.5
2 | NCCCCCCCCNc1nc(-c2ccccc2)nc(-c2cccc3ccccc23)c1-c1ccccc1 [compound 4] | 15 | 30 | >120 | 7.5
3 | NCCCCCCCCCCNc1nc(-c2ccccc2)nc(-c2cccc3ccccc23)c1-c1ccccc1 [compound 5] | >120 | >120 | >120 | 7.5
4 | NCCCOCCCCOCCCNc1nc(-c2ccccc2)nc(-c2cccc3ccccc23)c1-c1ccccc1 [compound 6] | >120 | 60 | >120 | 7.5
5 | Fc1ccc(-c2nc(-c3ccccc3)nc(N3CCCNCC3)c2-c2ccccc2)cc1 [compound 7] | 30 | 15 | >120 | 15
6 | NCCCCCCCCCCCCNc1nc(-c2ccccc2)nc(-c2ccc(F)cc2)c1-c1ccccc1 [compound 8] | 120 | 30 | >120 | 30
7 | NCCCOCCCCOCCCNc1nc(-c2ccccc2)nc(-c2ccc(F)cc2)c1-c1ccccc1 [compound 9] | 30 | 15 | >120 | 15
8 | CNCCN(C)c1nc(-c2ccccc2)nc(-c2ccc(C)cc2)c1-c1ccccc1 [compound 10] | 30 | 30 | >120 | 15
9 | Cc1ccc(-c2nc(-c3ccccc3)nc(NCCCCCCN)c2-c2ccccc2)cc1 [compound 11] | 7.5 | 15 | >120 | 7.5
10 | Cc1ccc(-c2nc(-c3ccccc3)nc(NCCCN(C)CCCN)c2-c2ccccc2)cc1 [compound 12] | 7.5 | 3.75 | 7.5 | 7.5
11 | Cc1ccc(-c2nc(-c3ccccc3)nc(NCCOCCOCCN)c2-c2ccccc2)cc1 [compound 13] | 30 | 15 | >120 | 15
12 | Cc1ccc(-c2nc(-c3ccccc3)nc(NCCCN3CCN(CCCN)CC3)c2-c2ccccc2)cc1 [compound 14] | 15 | 3.75 | 30 | 15
13 | Cc1ccc(-c2nc(-c3ccccc3)nc(N3CCC(CCCC4CCNCC4)CC3)c2-c2ccccc2)cc1 [compound 15] | >120 | >120 | >120 | 15
14 | FC(F)(F)c1cccc(-c2nc(-c3ccccc3)nc(N3CCNCC3)c2-c2ccccc2)c1 [compound 16] | 15 | 15 | >120 | 7.5
15 | CNCCN(C)c1nc(-c2ccccc2)nc(-c2cccc(C(F)(F)F)c2)c1-c1ccccc1 [compound 17] | 15 | 30 | >120 | 15
16 | NCCNCCNc1nc(-c2ccccc2)nc(-c2cccc(C(F)(F)F)c2)c1-c1ccccc1 [compound 18] | 60 | 30 | 120 | 30
17 | NCCN1CCN(c2nc(-c3ccccc3)nc(-c3cccc(C(F)(F)F)c3)c2-c2ccccc2)CC1 [compound 19] | 8 | 15 | >120 | 7.5
18 | NCCCCCCCCNc1nc(-c2ccccc2)nc(-c2cccc(C(F)(F)F)c2)c1-c1ccccc1 [compound 20] | 15 | 30 | >120 | 15
19 | CN(CCCN)CCCNc1nc(-c2ccccc2)nc(-c2cccc(C(F)(F)F)c2)c1-c1ccccc1 [compound 21] | <3.75 | <3.75 | 7.5 | 7.5

Next, values leading:

Row | MIC CA [1] | MIC EC [2] | MIC PA [3] | MIC SA [4] | SMILES
20 | 7.5 | 15 | >120 | 15 | NCCOCCOCCNc1nc(-c2ccccc2)nc(-c2cccc(C(F)(F)F)c2)c1-c1ccccc1 [compound 22]
21 | 7.5 | 7.5 | 30 | 15 | NCCCN1CCN(CCCNc2nc(-c3ccccc3)nc(-c3cccc(C(F)(F)F)c3)c2-c2ccccc2)CC1 [compound 23]
22 | 30 | 15 | 30 | 30 | COc1cccc(-c2nc(-c3ccccc3)nc(NCCCN(C)CCCN)c2-c2ccccc2)c1 [compound 24]
23 | 120 | 60 | >120 | >120 | COc1cccc(-c2nc(-c3ccccc3)nc(NCCCN3CCN(CCCN)CC3)c2-c2ccccc2)c1 [compound 25]
24 | >120 | 60 | >120 | 60 | CNCCN(C)c1nc(-c2ccccc2)nc(-c2ccccc2OC)c1-c1ccccc1 [compound 26]
25 | 60 | 30 | >120 | 30 | COc1ccccc1-c1nc(-c2ccccc2)nc(N2CCN(CCN)CC2)c1-c1ccccc1 [compound 27]
26 | >120 | >120 | >120 | <3.75 | COc1ccccc1-c1nc(-c2ccccc2)nc(N2CCC(CCCC3CCNCC3)CC2)c1-c1ccccc1 [compound 28]
27 | 30 | 30 | >120 | 15 | NCCCCCCCCCCCCNc1cc(-c2cccc3ccccc23)ncn1 [compound 29]
28 | 15 | 30 | >120 | 60 | FC(F)(F)c1cccc(-c2cc(N3CCC(CCCC4CCNCC4)CC3)ncn2)c1 [compound 30]
29 | 120 | >120 | >120 | 60 | CCCNc1cc(C)nc(-c2cccnc2)n1 [compound 31]
30 | 60 | 120 | >120 | 60 | CCCCNc1cc(C)nc(-c2cccnc2)n1 [compound 32]
31 | 60 | >120 | >120 | 30 | CCCCCCNc1cc(C)nc(-c2cccnc2)n1 [compound 33]
32 | 30 | 120 | >120 | 7.5 | CCCCCCCCNc1cc(C)nc(-c2cccnc2)n1 [compound 34]
33 | 30 | 30 | 120 | 15 | CCCCCCCCCCCNc1cc(C)nc(-c2cccnc2)n1 [compound 35]
34 | 7.5 | 15 | 60 | 7.5 | CCCCCCCCCCCCNc1cc(C)nc(-c2cccnc2)n1 [compound 36]
